Results taken from PMC5531494, “Target specificity, in vivo pharmacokinetics, and efficacy of the putative STAT3 inhibitor LY5 in osteosarcoma, Ewing's sarcoma, and rhabdomyosarcoma” (PLoS ONE, 2017).

Experiments:
[1] = target: T1, STAT6 (Homo sapiens, UniProt P42226); assay: Cytokine-induced STAT6 phosphorylation in SJSA cells, Western blot; type: cell-based; details: induced by IFN-γ, IFN-α, or IL-4
T1 construct: endogenous in cells; host or cells: SJSA
Protocol: Cell lysis, protein isolation and immunoblotting were performed as described previously. Twenty micrograms of protein were resolved using 4–12% Bis-Tris polyacrylamide gels. Gels were transferred to PVDF membranes and subjected to blocking and incubation with primary and secondary antibodies. The primary antibodies used in this study included: phospho-STAT3 (Tyr705, Cell Signaling, Boston, MA and Abcam, Cambridge, MA), total STAT3 (Cell Signaling and Abcam), phospho-STAT1 (Cell Signaling), total STAT1 (Cell Signaling), phospho-STAT2 (Cell Signaling), phospho-STAT4 (Cell Signaling), phospho-STAT6 (Cell Signaling), and GAPDH (Cell Signaling). Protein bands were detected using Western Lightning ® Plus Enhanced Chemiluminescence substrate (Perkin Elmer, Waltham, MA) and HyBlot CL ® Autoradiography film (Denville Scientific, Holliston, MA). The cytokines used in this study included: interferon gamma (IFN-γ, Cell Signaling), interferon alpha (IFN-α, Cell Signaling), interleukin-4 (IL-4, Cell Signaling), interleukin-6 (IL-6, Cell Signaling), and oncostatin M (OSM, Cell Signaling).
Fig 1 LY5 inhibits pSTAT3 in sarcoma cell lines. (A) The tumor cell lines RH30, EW8, and RD were treated with increasing concentrations of LY5 for 30 minutes. Cell lysates were collected for Western blotting of p-STAT3, total STAT3, and GAPDH. GAPDH was used as loading control. […]

[2] = test system: MG63.3 cells; assay: Ex vivo pulmonary metastasis assay (PuMA); type: cell-based, human; details: MG 63.3, 10 μM and 50 μM LY5, up to 21 days
Protocol: GFP-positive K7M2 and MG63.3 cells (3 x 10^5 MG63.3; 5 x 10^5 K7M2) were administered via tail vein injection into mice. Following humane euthanasia, the lungs were insufflated with a culture medium/agarose mixture to a constant hydrostatic pressure of 20 cm H2O and prepared for ex vivo culture as previously described. Lung sections were cultured in complete media containing LY5 (0, 0.1, 1, 10 or 50 μM) on sterile Gelfoam using 6 lung sections per treatment condition. Media was changed every 48 hrs and lung slices were imaged with a fluorescent microscope every 7 days for a total of 21 days.
MG63.3 and K7M2 cell lines were exposed to increasing concentrations of LY5 to determine the IC50 (A). Western blot analysis was performed to determine the dose and duration of LY5 exposure required to inhibit STAT3 phosphorylation (B-C). Serial imaging of fluorescently labeled MG63.3 and K7M2 cells was performed in ex vivo LY5 treated lung sections (D). Metastatic burden was quantified by evaluation of the percent tumor burden (mean normalized fluorescent area). Data are reported as the mean ± standard deviation. In MG 63.3 experiment, p < 0.0001 Kruskal-Wallis test, p < 0.05 10 μM vs control at days 7, 14, and 21, 10 μM vs 1 μM at days 7, 14, and 21, 50 μM vs control at days 7, 14, and 21, and 50 μM vs 10 μM at days 7, 14, and 21 post-test Dunn. […]

[3] = target: STAT3 (Homo sapiens, UniProt P40763); assay: STAT3 phosphorylation in OS-1 PDX tumors; type: in vivo, mice; design: from tissue; host or cells: OS-17-luc lung metastases and OS-1 subcutaneous PDX tumours in C.B-17 scid mice; details: 40 mg/kg twice daily, tumors harvested 2 hrs after final drug administration
Protocol: To further examine the efficacy of LY5, we administered LY5 using subcutaneous PDX models of RMS (RH10 and RH36) and OS (OS-17 and OS-1). RH10, RH36 and OS-1 were derived from tissue explants, therefore no corresponding cell lines exist. Tumors were harvested 2 hrs after final drug administration. […] In addition, STAT3 phosphorylation was not observed in control or treated tumor derived from OS-17, and inhibition of STAT3 phosphorylation was not observed in OS-1 PDX models treated with 40 mg/kg twice daily.

Chain of STAT3 (P40763 whole entry): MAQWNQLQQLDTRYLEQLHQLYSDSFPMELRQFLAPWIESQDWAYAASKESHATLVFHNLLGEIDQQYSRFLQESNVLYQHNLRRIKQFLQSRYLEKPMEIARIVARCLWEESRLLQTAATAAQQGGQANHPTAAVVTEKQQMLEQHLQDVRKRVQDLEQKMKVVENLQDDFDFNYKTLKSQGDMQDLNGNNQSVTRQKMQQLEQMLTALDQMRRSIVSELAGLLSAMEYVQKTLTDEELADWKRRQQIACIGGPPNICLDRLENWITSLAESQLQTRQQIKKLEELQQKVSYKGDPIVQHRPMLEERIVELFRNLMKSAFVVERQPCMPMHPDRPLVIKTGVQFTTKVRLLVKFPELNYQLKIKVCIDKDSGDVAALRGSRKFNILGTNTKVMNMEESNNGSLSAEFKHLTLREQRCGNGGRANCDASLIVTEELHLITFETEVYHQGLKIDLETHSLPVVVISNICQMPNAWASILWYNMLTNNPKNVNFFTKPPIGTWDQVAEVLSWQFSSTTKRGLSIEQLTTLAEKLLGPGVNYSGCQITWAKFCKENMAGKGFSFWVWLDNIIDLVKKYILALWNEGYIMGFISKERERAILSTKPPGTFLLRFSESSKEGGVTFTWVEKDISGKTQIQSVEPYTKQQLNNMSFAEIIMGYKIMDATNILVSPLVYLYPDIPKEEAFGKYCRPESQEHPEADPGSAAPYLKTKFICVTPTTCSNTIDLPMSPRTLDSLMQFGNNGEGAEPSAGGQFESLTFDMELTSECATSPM
T1 sequence (P42226 whole entry): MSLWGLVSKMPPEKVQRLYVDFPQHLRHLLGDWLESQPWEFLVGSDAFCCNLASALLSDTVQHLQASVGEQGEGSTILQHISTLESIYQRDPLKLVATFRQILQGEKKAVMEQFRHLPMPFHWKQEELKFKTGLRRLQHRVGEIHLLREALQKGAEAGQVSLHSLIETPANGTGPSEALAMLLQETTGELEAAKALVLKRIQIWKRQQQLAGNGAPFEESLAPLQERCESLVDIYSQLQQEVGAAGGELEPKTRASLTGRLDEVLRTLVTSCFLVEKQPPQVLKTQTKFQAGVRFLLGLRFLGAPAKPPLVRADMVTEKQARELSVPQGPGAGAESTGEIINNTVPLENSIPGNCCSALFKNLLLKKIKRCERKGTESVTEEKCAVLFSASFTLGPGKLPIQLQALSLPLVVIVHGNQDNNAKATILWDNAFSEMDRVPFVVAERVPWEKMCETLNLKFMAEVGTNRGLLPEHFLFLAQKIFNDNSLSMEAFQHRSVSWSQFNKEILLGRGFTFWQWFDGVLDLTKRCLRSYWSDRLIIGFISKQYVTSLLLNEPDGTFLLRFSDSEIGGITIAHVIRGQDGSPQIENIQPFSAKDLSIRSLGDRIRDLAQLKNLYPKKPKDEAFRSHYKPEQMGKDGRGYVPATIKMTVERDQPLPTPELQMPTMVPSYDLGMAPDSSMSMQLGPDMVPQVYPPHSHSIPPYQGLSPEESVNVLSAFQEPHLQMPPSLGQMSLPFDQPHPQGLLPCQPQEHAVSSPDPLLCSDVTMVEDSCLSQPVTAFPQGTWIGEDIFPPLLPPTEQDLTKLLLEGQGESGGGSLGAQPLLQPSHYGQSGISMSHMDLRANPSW

NS(=O)(=O)c1cccc2c1C(=O)C=C(Nc1cccnc1)C2=O [LY5, 5,8-dioxo-6-(pyridin-3-ylamino)-5,8-dihydronaphthalene-1-sulfonamide]
phosphorylation of STAT6 [1]: did not inhibit | percent tumor burden in PuMA [2]: significantly decreased | inhibition of STAT3 phosphorylation in tumors [3]: not observed
